How the values were obtained:
[1] = system: basophils (CD63 expression) in human whole blood; assay: 384-well HTBS Whole Blood CD63 Basophil Assay; assay type: cell-based; conditions: human whole blood (25% blood); for IC50: comparison table; for EC50: Homo sapiens, anti-FceRI mAb activation
Procedure: Syk activity was assessed in relation to reduced activation of basophils as measured by the expression of CD63 in a human whole blood basophil cellular assay (25% blood). Basophil activation was measured in human whole blood using the Flow CAST kit (Buhlmann Laboratories AG, Baselstrasse, Switzerland) following the protocol provided by the manufacturer with minor modifications. Fresh human whole blood in heparin was collected and delivered same day (AllCells, Emeryville, Calif.). Whole blood samples were incubated with either DMSO (1% final) or serial diluted compounds in DMSO for 60 minutes at 37° C. Basophils were activated using the anti-FceRI mAb and stained with anti-CD63-FITC and anti-CCR3-PE for 20 minutes at 37° C. (per well: 50 μL of whole blood was mixed with 113 μL of stimulation buffer, 8.5 μL anti-FceRI mAb, 8.5 μL Ab stain CCR3-PE/CD63-FITC). Cells were centrifuged at 1000×g for 18 minutes and 150 μL/well of supernatant removed. Red blood cells were lysed and cells fixed by 2 rounds of cell lysing: resuspending cell pellets with 150 μL/well 1× lysis buffer, incubating at room temperature for 10 minutes, and collecting cell pellets by centrifuging for 1200 rpms for 5 minutes. Cells were washed with 150 μL/well wash buffer twice, and resuspended in a final volume of 75 μL/well of wash buffer for either immediate flow cytometery analysis or overnight incubation at 4° C. followed by flow cytometry analysis. Degranulation (basophil activation) was detected by CD63 surface expression on CCR3 positive cells. The percent CD63 positive cells within the gated basophil population were determined and normalized to the DMSO (negative control) and control compound (positive control).

[2] = Kinetic Solubility in phosphate buffer at pH 7.4; assay type: physicochemical; conditions: 37 °C, aqueous buffer, kinetic from dmso stock; phosphate buffer pH 7.4
Procedure: The kinetic solubility of compounds in phosphate buffer at pH 7.4 was assessed. The compounds to be tested were dissolved in dimethylsulfoxide at a 10 mM concentration. Stock samples were diluted, 3 μl with 297 μl of the phosphate buffer at pH 7.4 (DulBecco's phosphate buffered saline (Sigma-Aldrich D8662), overall molarity is 0.149 M and pH 7.43). The samples were then incubated for 24 hours at 37° C. with shaking, the centrifuged and an aliquot taken and tested relative to a known standard concentration of 0.1 mM.

hepatocytes = assay type: in vitro ADME; conditions: human
Procedure: The human […] stability of the compounds as predicted hepatocyte clearance in L/hr/kg was assessed. Compounds to be tested were diluted to 200 μM (4 μl of 10 mM DMSO stock into 196 μl ACN:H2O (50:50). Propranolol was used as a positive control, and buffer only without hepatocytes as 0% control. These were further diluted 4 μl with 891 μl KHB buffer (InVitroGRO catalog number Z99074) to provide 2× dosing solution. To each well of 24 well plate, 250 μl of the 2× dosing solution was added to each well with 250 μl of hepatocytes cells (1×10^6 viable cells/ml per well) or KHB for control samples to achieve a final compound concentration of 1 μM during incubation. The final solvent concentration was 0.01% DMSO and 0.25% ACN. The culture plate was placed on a rocker and incubated at 37° C., 5% CO2. Samples were collected at time 0, 1, 3, and 6 hours. The loss of parent compound was determined using LC-MS methods against a standard curve.

[3] = system: aberrant GVHD B-cell populations; conditions: ex vivo; cited from earlier work

Row | Compound | IC50 [1] | solubility kinetic at 24 h [2] | Hheps CL (hepatocytes) | EC50 [1] | function and frequency of aberrant GVHD B-cell populations [3]
1 | Nc1cncc(-c2cn3ccnc3c(Nc3ccc(N4CCN(CC(CO)CO)CC4)cc3)n2)n1 [Ex.-6, 2-((4-(4-((6-(6-aminopyrazin-2-yl)imidazo[1,2-a]pyrazin-8-yl)amino)phenyl)piperazin-1-yl)methyl)propane-1,3-diol] | 128 nM | > 90 µM | 1.33 mL/min/kg | < 200 nM | –
2 | COc1cc(Nc2ncc(F)c(Nc3ccc4c(n3)N(COP(=O)(O)O)C(=O)C(C)(C)O4)n2)cc(OC)c1OC [fostamatinib] | – | – | – | – | selectively reduce the function and frequency of aberrant GVHD B-cell populations

The next lines start with results.

Row | IC50 [1] | solubility kinetic at 24 h [2] | Hheps CL (hepatocytes) | EC50 [1] | Compound | function and frequency of aberrant GVHD B-cell populations [3]
3 | 63 nM | > 90 µM | 1.5 mL/min/kg | – | Nc1cncc(-c2cn3ccnc3c(Nc3ccc(N4CCO[C@@H](CO)C4)cc3)n2)n1 [Ex.-3, (R)-(4-(4-((6-(6-aminopyrazin-2-yl)imidazo[1,2-a]pyrazin-8-yl)amino)phenyl)morpholin-2-yl)methanol] | –
4 | 157 nM | > 90 µM | 1.33 mL/min/kg | < 200 nM | Cc1c(-c2cncc(N)n2)nc(Nc2ccc(N3CCN(C4COC4)CC3)cc2)c2nccn12 [Ex.-4, 6-(6-aminopyrazin-2-yl)-5-methyl-N-(4-(4-(oxetan-3-yl)piperazin-1-yl)phenyl)imidazo[1,2-a]pyrazin-8-amine] | –
5 | 120 nM | > 90 µM | 1.17 mL/min/kg | < 200 nM | Nc1cncc(-c2cn3ccnc3c(Nc3ccc(N4CCN(C5COC5)CC4)c(OCCO)c3)n2)n1 [Ex.-5, 2-(5-((6-(6-aminopyrazin-2-yl)imidazo[1,2-a]pyrazin-8-yl)amino)-2-(4-(oxetan-3-yl)piperazin-1-yl)phenoxy)ethanol] | –

Source: patent publication US20160375019A1, “TREATMENT OF CHRONIC GRAFT VERSUS HOST DISEASE WITH SYK INHIBITORS” (Gilead Sciences, Inc., priority 2015, published 2016)
